Patent publication US7655816B2, “Method for stabilizing menthyl lactate” (Millennium Specialty Chemicals, priority 2007, dated 2010)

Type: physicochemical
Conditions: for acid number after storage / odor after storage / GC purity after storage / appearance after storage: after storage for 39 months in a closed glass jar
Source text: Precipitation according to the method of the invention provides menthyl lactate having improved stability compared with that of an unprecipitated sample. By “improved stability,” we mean that one or more important physical properties of the menthyl lactate becomes more constant as a function of time as a consequence of precipitation when compared with menthyl lactate that has not been precipitated according to the method. Important physical properties include, without limitation, appearance, dimensional stability, color, texture, organoleptic properties (odor, flavor), melting point, acid number, GC purity, optical rotation, pH, solubility, and the like. Preferably, the ML retains its desirable physical property or properties even after prolonged storage. “Prolonged” depends on the particular application, but it is preferably at least one week, more preferably at least one month, and most preferably at least one year.
After storage for 39 months in a closed glass jar, the product is evaluated for quality.
A sample of solid menthyl lactate from the same batch that was used in Example 1 is stored under similar conditions for the same 39 months. […] Mp: 39.3° C.; GC purity: <96%; acid number: 32 mg KOH/g.

In the case of CC1CCC(C(C)C)C(OC(=O)C(C)O)C1 (stereo not drawn) [Comparative Example 4, menthyl lactate], the “melting point after storage” value is reported as 43.6 °C, the “acid number after storage” value is reported as 0.27 mg KOH/g and the odor after storage is reported as “some deterioration of odor quality”.

For CC1CCC(C(C)C)C(OC(=O)C(C)O)C1 (stereo not drawn) [Comparative Example 3, menthyl lactate], the “melting point after storage” value was 36.7 °C, the “GC purity after storage” value was 92% and the “acid number after storage” value was 20 mg KOH/g. For the same compound, the appearance after storage was “shrinks” and the odor after storage was “strong, pungent acidic odor”.

For CC1CCC(C(C)C)C(OC(=O)C(C)O)C1 (stereo not drawn) [compound 5, menthyl lactate], the “melting point after storage” value was 43.7 °C, the “GC purity after storage” value was 97% and the “acid number after storage” value was 0.32 mg KOH/g. For the same compound, the odor after storage was “strong, pungent acidic odor”.

In the case of CC1CCC(C(C)C)C(OC(=O)C(C)O)C1 (stereo not drawn) [Example 1, menthyl lactate], the “melting point after storage” value is reported as 43.9 °C, the “GC purity after storage” value is reported as ≥ 99.8% and the “acid number after storage” value is reported as 0.15 mg KOH/g. For the same compound, the appearance after storage was “fine, white crystalline powder” and the odor after storage was “faint, minty”.

In the case of CC1CCC(C(C)C)C(OC(=O)C(C)O)C1 (stereo not drawn) [compound 2, menthyl lactate], the “melting point after storage” value is reported as 39.3 °C, the “GC purity after storage” value is reported as < 96% and the “acid number after storage” value is reported as 32 mg KOH/g. For the same compound, the odor after storage was “strong, pungent acidic odor”.
